From patent publication US11034648B2, “Cystobactamide derivatives” (priority 2017, dated 2021)
In brackets after ≈: the same amount, converted by molar mass.

Columns and labels:
P. aeruginosa WT PA14 = assay: MIC, microbroth dilution susceptibility assay; format: cell-based; details: small panel, Tables 1a/1b
Method in brief: (§1)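 Overnight cultures were diluted in cation-adjusted Müller-Hinton broth to 10^4-10^6 cfu/mL and grown with serially diluted compound (from DMSO stocks) for approx. 16 h at 30-37° C. MIC is the lowest concentration with no visible bacterial growth.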

C. freundii DSM-30039 = assay: MIC, microbroth dilution susceptibility assay; format: cell-based; details: large panel, Table 2a
Method in brief: as §1

P. aeruginosa DSM-46316 = assay: MIC, microbroth dilution susceptibility assay; format: cell-based; details: large panel, Table 2a
Method in brief: as §1

E. aerogenes DSM-30053 = assay: MIC, microbroth dilution susceptibility assay; format: cell-based; details: large panel, Table 2a
Method in brief: as §1

K. pneumoniae DSM-30104 = assay: MIC, microbroth dilution susceptibility assay; format: cell-based; details: large panel, Table 2a
Method in brief: as §1

S. epidermidis DSM-28765 = assay: MIC, microbroth dilution susceptibility assay; format: cell-based; details: large panel, Table 2a
Method in brief: as §1

A. baumannii DSM-30008 = assay: MIC, microbroth dilution susceptibility assay; format: cell-based; details: large panel, Table 2a
Method in brief: as §1

S. aureus ATCC-29213 = assay: MIC, microbroth dilution susceptibility assay; format: cell-based; details: large panel, Table 2a
Method in brief: as §1

S. marcescens DSM-30121 = assay: MIC, microbroth dilution susceptibility assay; format: cell-based; details: large panel, Table 2a
Method in brief: as §1

S. aureus Newman = assay: MIC, microbroth dilution susceptibility assay; format: cell-based; details: small panel, Tables 1a/1b
Method in brief: as §1

E. faecalis ATCC-29212 = assay: MIC, microbroth dilution susceptibility assay; format: cell-based; details: large panel, Table 2a; TSB
Method in brief: as §1

E. coli WT = assay: MIC, microbroth dilution susceptibility assay; format: cell-based
Method in brief: as §1

P. vulgaris DSM-2140 = assay: MIC, microbroth dilution susceptibility assay; format: cell-based; details: large panel, Table 2a
Method in brief: as §1

E. cloacae DSM-30054 = assay: MIC, microbroth dilution susceptibility assay; format: cell-based; details: large panel, Table 2a
Method in brief: as §1

P. mirabilis DSM-2140 = assay: MIC, microbroth dilution susceptibility assay; format: cell-based; details: large panel, Table 2a
Method in brief: as §1

E. coli WT DSM-1116 = assay: MIC, microbroth dilution susceptibility assay; format: cell-based; details: small panel, Tables 1a/1b; no visual growth after approx. 16 h
Method in brief: as §1

P. aeruginosa DSM-24600 = assay: MIC, microbroth dilution susceptibility assay; format: cell-based; details: large panel, Table 2a
Method in brief: as §1

S. pneumoniae DSM-20566 = assay: MIC, microbroth dilution susceptibility assay; format: cell-based; details: large panel, Table 2a; TSB
Method in brief: as §1

P. aeruginosa ΔmexAB = assay: microbe, parasite or virus in culture; format: cell-based; details: efflux-deficient strain; small panel, Tables 1a/1b
Method in brief: as §1

[1] = test system: E. coli WT-3 [gyrA(S83L,D87G)]; assay: microbe, parasite or virus in culture; format: cell-based
Method in brief: as §1

E. coli ΔtolC = assay: microbe, parasite or virus in culture; format: cell-based; details: small panel, Tables 1a/1b; no visual growth after approx. 16 h
Method in brief: as §1

E. aerogenes = assay: MIC, microbroth dilution susceptibility assay (Table 2b); format: cell-based; details: larger panel
Experimental: (§2) Cystobactamid derivatives synthesized were tested against relevant Gram negative and positive bacteria of clinical interest. Experimental procedures used for the biological characterization of the compounds are the same as previously described in WO 2016/082934.
(§3) Bacterial strains used in susceptibility assays (minimum inhibitory concentration, MIC) were either part of our internal strain collection or purchased from the German Collection of Microorganisms and Cell Cultures (Deutsche Sammlung von Mikroorganismen und Zellkulturen, DSMZ) and the American Type Culture Collection (ATCC). The susceptible E. coli strain (WT) and fluoroquinolone-resistant mutants E. coli WT-3 and WT-III were kindly provided by Prof Dr. P. Heisig, Pharmaceutical Biology and Microbiology, University of Hamburg, Germany. The efflux-deficient strain P. aeruginosa ΔmexAB was kindly provided by Prof Dr. S. Häußler, Institute for Molecular Bacteriology, TWINCORE, Hannover, Germany. All compounds were prepared as DMSO stocks and MIC values were determined in standard microbroth dilution assays in 96-well MTPs as described in Baumann et al., Angew Chem Int Ed Engl. 2014; 53(52):14605-9. In brief, overnight cultures of bacteria were diluted in either tryptic soy broth (TSB: 1.7% peptone casein, 0.3% peptone soymeal, 0.25% glucose, 0.5% NaCl, 0.25% K2HPO4; pH 7.3; S. pneumoniae and E. faecalis) or cation-adjusted Müller-Hinton Broth (BBL™, BD; all other bacteria) and adjusted to 10^4-10^6 cfu/mL. Bacteria were grown in the presence of the derivatives in serial dilution for approx. 16 h at 30-37° C. MIC values were determined and were defined as the antibiotic concentration at which no visual growth of bacteria was observed.

P. mirabilis = assay: as above; format: cell-based; details: larger panel
Experimental: as §2, §3

P. aeruginosa ESBL 2 = assay: as above; format: cell-based; details: larger panel
Experimental: as §2, §3

A. baumannii = assay: as above; format: cell-based; details: larger panel
Experimental: as §2, §3

S. epidermidis = assay: as above; format: cell-based; details: larger panel
Experimental: as §2, §3

C. freundii = assay: as above; format: cell-based; details: larger panel
Experimental: as §2, §3

P. aeruginosa ESBL 1 = assay: as above; format: cell-based; details: larger panel
Experimental: as §2, §3

S. marcescens = assay: as above; format: cell-based; details: larger panel
Experimental: as §2, §3

E. cloacae = assay: as above; format: cell-based; details: larger panel
Experimental: as §2, §3

E. faecalis = assay: as above; format: cell-based; details: larger panel
Experimental: as §2, §3

P. vulgaris = assay: as above; format: cell-based; details: larger panel
Experimental: as §2, §3

K. pneumoniae = assay: as above; format: cell-based; details: larger panel
Experimental: as §2, §3

[2] = test system: E. coli WT-III [marRΔ74bp]; format: cell-based; details: fluoroquinolone-resistant mutant; Table 2a
Experimental: as §2, §3

E. coli gyrase = molecular target: T1, E. coli gyrase (Escherichia coli, UniProt P0AES4+P0AES6); assay: E. coli gyrase supercoiling (sc) assay; format: biochemical; details: supercoiling assay kit, agarose gel quantification; read-out: Ec gyrase sc IC50
T1 construct: purchased Inspiralis
Experimental: The target activity on E. coli gyrase was assessed as described in Baumann et al., Angew Chem Int Ed Engl. 2014; 53(52):14605-9 using a commercial supercoiling (sc) assay kit from Inspiralis according to the manufacturer's instructions. The samples were separated on 0.8% (w/v) agarose gels and relaxed and supercoiled plasmid was visualized by ethidium bromide staining. Half-inhibitory concentrations (IC50) were calculated after image analysis and quantification (ImageJ) based on sigmoidal curve fitting (OriginPro).

In the case of `CO[C@@H](C(N)=O)[C@H](NC(=O)c1ccc(NC(=O)c2ccc([N+](=O)[O-])cc2)cc1)C(=O)Nc1ccc(C(=O)Nc2ccc(C(=O)Nc3ccc(C(=O)O)cc3)c(O)c2OC(C)C)cc1` [Cys861-2, reference compound], the “MIC P. aeruginosa WT PA14” value (P. aeruginosa WT PA14) is reported as 2 µg/mL (≈ 2.32 µM), the “MIC C. freundii DSM-30039” value (C. freundii DSM-30039) is reported as 0.06 µg/mL (≈ 0.0696 µM) and the “MIC P. aeruginosa DSM-46316” value (P. aeruginosa DSM-46316) is reported as 2 µg/mL (≈ 2.32 µM). For the same compound, the “MIC E. aerogenes DSM-30053” value (E. aerogenes DSM-30053) was greater than 64 µg/mL, the “MIC K. pneumoniae DSM-30104” value (K. pneumoniae DSM-30104) was greater than 64 µg/mL and the “MIC S. epidermidis DSM-28765” value (S. epidermidis DSM-28765) was 0.5 µg/mL (≈ 0.58 µM). For the same compound, the “MIC A. baumannii DSM-30008” value (A. baumannii DSM-30008) was 0.5 µg/mL (≈ 0.58 µM), the “MIC S. aureus ATCC-29213” value (S. aureus ATCC-29213) was 0.25 µg/mL (≈ 0.29 µM) and the “MIC S. marcescens DSM-30121” value (S. marcescens DSM-30121) was 64 µg/mL (≈ 74.3 µM). For the same compound, the “MIC S. aureus Newman” value (S. aureus Newman) was 0.5 µg/mL (≈ 0.58 µM), the “MIC E. faecalis ATCC-29212” value (E. faecalis ATCC-29212) was 1 µg/mL (≈ 1.16 µM) and the “MIC E. coli WT” value (E. coli WT; large panel, Table 2a) was 0.13 µg/mL (≈ 0.151 µM). The “MIC E. coli WT” value (E. coli WT; larger panel, Table 2b) was 0.06 µg/mL (≈ 0.0696 µM), the “MIC P. vulgaris DSM-2140” value (P. vulgaris DSM-2140) was 0.25 µg/mL (≈ 0.29 µM) and the “MIC E. cloacae DSM-30054” value (E. cloacae DSM-30054) was 64 µg/mL (≈ 74.3 µM). For the same compound, the “MIC P. mirabilis DSM-2140” value (P. mirabilis DSM-2140) was greater than 64 µg/mL, the “MIC E. coli WT DSM-1116” value (E. coli WT DSM-1116) was 0.125 µg/mL (≈ 0.145 µM) and the “MIC P. aeruginosa DSM-24600” value (P. aeruginosa DSM-24600) was 1 µg/mL (≈ 1.16 µM). For the same compound, the “MIC S. pneumoniae DSM-20566” value (S. pneumoniae DSM-20566) was 0.06 µg/mL (≈ 0.0696 µM), the “MIC P. aeruginosa ΔmexAB” value (P. aeruginosa ΔmexAB) was 0.5 µg/mL (≈ 0.58 µM) and the “MIC E. coli WT-3 [gyrA(S83L, D87G)]” value ([1]; fluoroquinolone-resistant mutant, Table 2a) was 0.5 µg/mL (≈ 0.58 µM). The “MIC E. coli WT-3 [gyrA(S83L, D87G)]” value ([1]; larger panel, Table 2b) was 0.5 µg/mL (≈ 0.58 µM), the “MIC E. coli ΔtolC” value (E. coli ΔtolC) was 0.125 µg/mL (≈ 0.145 µM) and the “MIC E. aerogenes” value (E. aerogenes) was greater than 64 µg/mL. For the same compound, the “MIC P. mirabilis” value (P. mirabilis) was 32 µg/mL (≈ 37.1 µM), the “MIC P. aeruginosa ESBL 2” value (P. aeruginosa ESBL 2) was 2 µg/mL (≈ 2.32 µM) and the “MIC A. baumannii” value (A. baumannii) was 1 µg/mL (≈ 1.16 µM). For the same compound, the “MIC S. epidermidis” value (S. epidermidis) was 0.5 µg/mL (≈ 0.58 µM), the “MIC C. freundii” value (C. freundii) was 0.125 µg/mL (≈ 0.145 µM) and the “MIC P. aeruginosa ESBL 1” value (P. aeruginosa ESBL 1) was 4 µg/mL (≈ 4.64 µM). The “MIC S. marcescens” value (S. marcescens) was greater than 64 µg/mL, the “MIC E. cloacae” value (E. cloacae) was greater than 64 µg/mL and the “MIC E. faecalis” value (E. faecalis) was 1 µg/mL (≈ 1.16 µM). For the same compound, the “MIC P. vulgaris” value (P. vulgaris) was 0.25 µg/mL (≈ 0.29 µM), the “MIC K. pneumoniae” value (K. pneumoniae) was greater than 64 µg/mL and the “MIC E. coli WT-III [marRΔ74bp]” value [2] was 0.5 µg/mL (≈ 0.58 µM). For the same compound, the IC50 (E. coli gyrase) was 220 nM.
